From PubChem BioAssay (NCI) come the findings set out here.

Holding throughout (assay): NCI-60 cell line screen, 48 h
Experiment [1] concerns RPMI-8226 leukemia.
For experiment [2], the system named is COLO 205 colon.
Experiment [3] deals with HOP-62 NSCLC.
In experiment [4] the test system is UACC-257 melanoma.
For experiment [5], the system named is NCI-H460 lung.
In experiment [6] the test system is RXF 393 renal.
The subject of experiment [7] is SF-539 CNS.
Experiment [8] concerns SF-295 CNS.
The subject of experiment [9] is SW-620 colon.
Experiment [10] relates to KM12 colon.
The subject of experiment [11] is SR leukemia.

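Five compound concentrations were applied to cells in 96-well plates for 48 hours; endpoints were derived by simple linear interpolation of the resulting dose-response curve. TGI: total growth inhibition.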

On to `Cc1cc(N(CCC#N)CCC#N)ccc1/C=C(\N=[N+]=[N-])C(=O)NC(=O)COc1ccccc1`, for which the TGI in experiment [1] was more than 100 µM; in experiment [2], more than 100 µM; in experiment [3], more than 100 µM; in experiment [4], more than 100 µM; in experiment [5], more than 100 µM; in experiment [6], 97.5 µM. The TGI in experiment [7], in experiment [8], in experiment [9], in experiment [10] and in experiment [11] was more than 100 µM in each case.

With `CCOC(=O)C(C(=O)OCC)S(C)(=O)=O`, the TGI in [1], in experiment [2], in [3], in experiment [4], in experiment [5] and in experiment [6] was more than 100 µM in each case. The TGI in experiment [7], in experiment [8], in experiment [9], in experiment [10] and in experiment [11] was more than 100 µM in each case.

As for `CSc1c(S(C)=O)c2ccccc2n1C` (stereo not given), the TGI in experiment [1], in [2], in [3], in experiment [4], in experiment [5] and in experiment [6] was more than 100 µM in each case. Further, the TGI in [7], in experiment [8], in experiment [9], in experiment [10] and in experiment [11] was more than 100 µM throughout.

For `O=C(N/N=C\c1ccc(Cl)cc1)Nc1cccc2ccccc12`, the TGI in experiment [1] is more than 100 µM; in experiment [2], more than 100 µM; in experiment [3], 5.25 µM; in [4], more than 100 µM; in experiment [5] it was 10.2 µM; in [6] it was 9.99 µM. In addition, the TGI is 35.7 µM in experiment [7]; 6.2 µM in experiment [8]; more than 76.6 µM in experiment [9]; more than 23 µM in experiment [10]; 9.11 µM in experiment [11].

Consider `O=[N+]([O-])c1ccc(C2NC(=S)NC3c4cc([N+](=O)[O-])ccc4CCCC23)cc1` (stereo not given), for which the TGI in experiment [1] was more than 100 µM; in experiment [2] it was more than 100 µM; in experiment [3], more than 100 µM; in [4] it was more than 100 µM; in [5], more than 100 µM; in [6], 45.2 µM. Moreover, the TGI in experiment [7], in [8], in [9], in [10] and in experiment [11] was more than 100 µM each time.

Take `CC(C)(C)c1cc(OCc2n[nH]c(=S)n2N)c(Cl)cc1OCc1n[nH]c(=S)n1N`: the TGI in experiment [1] is more than 100 µM; in experiment [2], more than 100 µM; in experiment [3], more than 100 µM; in [4], more than 100 µM; in experiment [5] it was 77.9 µM; in experiment [6], more than 100 µM. Moreover, the TGI in [7], in experiment [8], in experiment [9], in experiment [10] and in experiment [11] was more than 100 µM each time.

As for `COc1cc2cnc3c4cc(O)ccc4ccc3c2cc1OC`, the TGI in [1] was more than 100 µM; in experiment [2], 59.8 µM; in experiment [3], more than 100 µM; in experiment [4], more than 100 µM; in [5] it was more than 100 µM; in [6], more than 100 µM. Moreover, the TGI in experiment [7], in experiment [8], in experiment [9], in experiment [10] and in [11] was more than 100 µM throughout.

On to `CCOC(=O)C12CCC(c3c(C)cccc3C)(O1)C(C(=O)OC)=C2C(=O)OC` (stereo not given), for which the TGI in [1] was more than 10 µM; in experiment [2], 5.08 µM; in experiment [3], more than 10 µM; in [4], 8.15 µM; in experiment [5], more than 10 µM; in experiment [6], more than 10 µM. Moreover, the TGI was 4.76 µM in [7]; more than 10 µM in experiment [8]; more than 10 µM in [9]; more than 10 µM in experiment [10]; 6.06 µM in experiment [11].

Consider `CC(C)C1CCC(=O)CC1CCCCC1CC(=O)CC1O[Si](C)(C)C(C)(C)C` (stereo not given), for which the TGI is 5.6 µM in [1]; 21.5 µM in experiment [2]; 33.7 µM in [3]; 21.7 µM in experiment [4]; more than 100 µM in experiment [5]; 27.8 µM in experiment [6]. Also, the TGI in experiment [7] was 24.8 µM; in experiment [8], 25.5 µM; in [9], more than 26.5 µM; in [10], 7.93 µM; in experiment [11] it was more than 35.1 µM.

On to `C[N+]1(C)C/C(=C\C=C\c2ccccc2)C(=O)/C(=C/C=C/c2ccccc2)C1`, for which the TGI was 10.9 µM in experiment [1]; 11.8 µM in [2]; 46.3 µM in experiment [3]; 26 µM in experiment [4]; 59.1 µM in experiment [5]; more than 61.1 µM in experiment [6]. The TGI in experiment [7] was determined as 33.9 µM; in experiment [8], 81.7 µM; in experiment [9], 41.5 µM; in [10], 10.3 µM; in experiment [11] it was 23.9 µM.

For the molecule `Cn1c2ccccc2c(=NNc2ccc(S(=O)(=O)N=C(N)N)cc2)c2ccccc21`, the TGI in experiment [1] came out at 43.4 µM; in experiment [2], 18.7 µM; in experiment [3], 28.2 µM; in experiment [4], 34.9 µM; in experiment [5], 14 µM; in experiment [6], 10.8 µM. The TGI in [7] was determined as 27.3 µM; in [8] it was 31.1 µM; in [9] it was 21.1 µM; in experiment [10], 20.6 µM; in experiment [11] it was 40.5 µM.

In the case of `CC(C)NC(=O)OCc1c(COC(=O)NC(C)C)c(-c2cc[n+](COC(=O)Cc3ccccc3)cc2)n2c1CCC2`, the TGI in experiment [1], in experiment [2], in experiment [3], in experiment [4], in [5] and in experiment [6] was more than 100 µM throughout. Besides, the TGI in experiment [7], in experiment [8], in [9], in experiment [10] and in [11] was more than 100 µM each time.

Take `Cc1ccc(C(CCO)CCO)nc1`: the TGI in [1], in experiment [2], in experiment [3], in experiment [4], in experiment [5] and in experiment [6] was more than 100 µM in each case. Besides, the TGI in experiment [7], in experiment [8], in experiment [9], in experiment [10] and in experiment [11] was more than 100 µM throughout.

With `O=C(OCC1CC(C2(O)CCCCC2)C(=O)O1)c1ccccc1` (stereo not given), the TGI in [1], in [2], in [3], in experiment [4], in [5] and in experiment [6] was more than 100 µM each time. The TGI in [7], in experiment [8], in experiment [9], in experiment [10] and in experiment [11] was more than 100 µM throughout.

With `COc1cc2c(cc1OC)-c1cc3cc(OC)c(OC)cc3c(C)[n+]1CC2` (tested in a mixture with another compound), the TGI was more than 100 µM in [1]; more than 100 µM in [2]; more than 100 µM in experiment [3]; 46.3 µM in [4]; 71.2 µM in experiment [5]; more than 100 µM in experiment [6]. The TGI in experiment [7] is more than 100 µM; in [8], more than 100 µM; in experiment [9], more than 100 µM; in experiment [10], more than 100 µM; in [11], […].
